The target of one assay is T1, KV2.1 (Homo sapiens, UniProt Q14721).
T1 construct: expressed in transfected cells; host or cells: HEK293 cells stably expressing β1/β2, transient transfection with Lipofectamine 2000
T1 sequence (Q14721 1-858): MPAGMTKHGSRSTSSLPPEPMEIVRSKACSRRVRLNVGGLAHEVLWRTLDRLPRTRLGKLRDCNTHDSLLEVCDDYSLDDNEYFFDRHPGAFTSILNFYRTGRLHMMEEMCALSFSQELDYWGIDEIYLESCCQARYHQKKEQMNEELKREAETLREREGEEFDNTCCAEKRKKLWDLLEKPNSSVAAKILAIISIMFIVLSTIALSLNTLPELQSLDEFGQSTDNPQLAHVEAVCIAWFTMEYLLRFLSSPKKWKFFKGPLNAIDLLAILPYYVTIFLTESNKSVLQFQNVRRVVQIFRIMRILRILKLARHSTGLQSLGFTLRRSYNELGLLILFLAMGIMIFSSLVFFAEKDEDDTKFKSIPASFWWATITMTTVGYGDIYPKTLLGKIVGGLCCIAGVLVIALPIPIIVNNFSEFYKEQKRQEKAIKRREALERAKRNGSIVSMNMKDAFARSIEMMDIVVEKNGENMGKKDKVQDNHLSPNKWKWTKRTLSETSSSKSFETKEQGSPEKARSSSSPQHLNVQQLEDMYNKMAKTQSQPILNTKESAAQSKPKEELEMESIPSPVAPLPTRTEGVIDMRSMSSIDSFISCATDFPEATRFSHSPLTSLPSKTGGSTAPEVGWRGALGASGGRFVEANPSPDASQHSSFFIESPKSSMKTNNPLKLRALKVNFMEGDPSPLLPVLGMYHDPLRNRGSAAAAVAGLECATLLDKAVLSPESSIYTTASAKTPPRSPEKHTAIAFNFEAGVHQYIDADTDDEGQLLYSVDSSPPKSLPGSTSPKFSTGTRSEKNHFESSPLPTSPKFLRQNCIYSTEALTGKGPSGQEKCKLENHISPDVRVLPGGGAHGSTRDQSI
In words: KV2.1 currents, whole-cell patch-clamp. Format: cell-based. The following applies: Eo1a 10 μM, 5 min, HEK293, human KV2.1, n = 3. The protocol:
(§1) Human Embryonic Kidney (HEK) 293 cells stably expressing human NaV1.1 to NaV1.7/β1 (SB Drug Discovery, Glasgow, United Kingdom), Chinese Hamster Ovary (CHO) cells stably expressing human NaV1.8/β3 in a tetracycline-inducible system (ChanTest, Cleveland, OH, United States), and HEK293 cells stably expressing rat transient receptor potential vanilloid 1 (TRPV1) were cultured as previously described ([Yin et al., 2020]). Human KV2.1 and NaV1.7 mutants were transiently transfected into HEK293 cells stably expressing β1/β2 using Lipofectamine 2000 (Thermo Fisher Scientific, Scoresby, VIC, Australia) and used for patch-clamp experiments 48 h after transfection. Cells were grown in an incubator at 37°C with 5% CO2 and passaged every 3–4 d (at 70–80% confluency) using TrypLE Express (Thermo Fisher Scientific).
(§2) Automated whole-cell patch-clamp recordings were performed with a QPatch-16 automated electrophysiology platform (Sophion Bioscience, Ballerup, Denmark) using single-hole (QPlate 16 with a standard resistance of 2 ± 0.4 MΩ) or multi-hole (QPlate 16X with a standard resistance 0.2 ± 0.04 MΩ, NaV1.8 only) as previously described ([McMahon et al., 2020]).
(§3) The extracellular solution (ECS) consisted of (in mM) 145 NaCl (replaced with 70 choline chloride for NaV1.4, NaV1.5 and NaV1.7), 4 KCl, 2 CaCl2, 1 MgCl2, 10 HEPES, and 10 glucose, pH to 7.4 with NaOH (adjusted to 305 mOsm/L with sucrose). For NaV recordings the intracellular solution (ICS) consisted of (in mM) 140 CsF, 1 EGTA, 5 CsOH, 10 HEPES, and 10 NaCl, pH to 7.3 with CsOH (adjusted to 320 mOsm/L with sucrose). For KV2.1 recordings the ICS consisted of (in mM) 50 KCl, 60 KF, 10 EGTA, 10 HEPES, 10 NaCl pH to 7.3 with KOH (adjusted to 320 mOsm/L with sucrose). TTX (1 μM) was added to the ECS for NaV1.8 recordings to inhibit background endogenous TTX sensitive current in CHO cells.
KV2.1 currents were acquired using a holding potential of −80 mV and a 300 ms pulse to +50 mV every 20 s (0.05 Hz). Eo1a was incubated for 5 min and compared to buffer control.
For orientation: The patch-clamp technique gives a direct electrical read-out from membranes.

In the next assay the target is NaV1.8 (Homo sapiens, UniProt Q9Y5Y9). In words: Concentration-response of NaV1.8 peak current, QPatch whole-cell patch-clamp. Format: cell-based. The following applies: CHO cells, hNaV1.8/β3, holding −90 mV, 50 ms pulse to +10 mV every 20 s, 5 min incubation, ECS with 0.1% BSA, 1 μM TTX, pH 7.4, four-parameter Hill fit, mean ± SEM, n = 7 cells, read-out: EC50 for increase in NaV1.8 peak current. The protocol:
as §1
Automated whole-cell patch-clamp recordings were performed with a QPatch-16 automated electrophysiology platform (Sophion Bioscience, Ballerup, Denmark) using single-hole (QPlate 16 with a standard resistance of 2 ± 0.4 MΩ) or multi-hole (QPlate 16X with a standard resistance 0.2 ± 0.04 MΩ, NaV1.8 only) as previously described ([McMahon et al., 2020]). […]

A further assay concerns NaV1.4. Briefly: I-V protocol, whole-cell patch-clamp, NaV1.4. Format: cell-based, human. The following applies: Eo1a 10 μM. The protocol: as §1, §2, §3
I-V curves were obtained with a holding potential of −90 mV followed by a series of 500 ms step pulses that ranged from −110 to +80 mV in 5-mV increments (repetition interval 5 s) before and after 5 min incubation with Eo1a (10 μM). Conductance-voltage (G-V) curves were obtained by calculating the conductance (G) at each voltage (V) using equation G = I/(V − V rev ), where V rev is the reversal potential. G-V curves were fitted with a Boltzmann equation. […]
(§4) The time constant of fast inactivation (τ) was computed by fitting the current decay traces with a single exponential function using QPatch Assay Software 5.6 (Sophion). The time to peak was calculated from pulse onset to peak inward current using QPatch Assay Software 5.6 (Sophion).

The next assay concerns NaV1.6. In words: I-V protocol, whole-cell patch-clamp, NaV1.6. The format is cell-based, human. The settings on record: Eo1a 10 μM. The protocol: as §1, §2
The extracellular solution (ECS) consisted of (in mM) 145 NaCl (replaced with 70 choline chloride for NaV1.4, NaV1.5 and NaV1.7), 4 KCl, 2 CaCl2, 1 MgCl2, 10 HEPES, and 10 glucose, pH to 7.4 with NaOH (adjusted to 305 mOsm/L with sucrose). For NaV recordings the intracellular solution (ICS) consisted of (in mM) 140 CsF, 1 EGTA, 5 CsOH, 10 HEPES, and 10 NaCl, pH to 7.3 with CsOH (adjusted to 320 mOsm/L with sucrose). For KV2.1 recordings the ICS consisted of (in mM) 50 KCl, 60 KF, 10 EGTA, 10 HEPES, 10 NaCl pH to 7.3 with KOH (adjusted to 320 mOsm/L with sucrose). […]
as §4

Molecules are shown by their SMILES. Where a SMILES comes first, the peptide text is derived from it. Bridges are numbered along the chain shown (N, C = ends).

NaV1.8, sequence (Q9Y5Y9 whole entry): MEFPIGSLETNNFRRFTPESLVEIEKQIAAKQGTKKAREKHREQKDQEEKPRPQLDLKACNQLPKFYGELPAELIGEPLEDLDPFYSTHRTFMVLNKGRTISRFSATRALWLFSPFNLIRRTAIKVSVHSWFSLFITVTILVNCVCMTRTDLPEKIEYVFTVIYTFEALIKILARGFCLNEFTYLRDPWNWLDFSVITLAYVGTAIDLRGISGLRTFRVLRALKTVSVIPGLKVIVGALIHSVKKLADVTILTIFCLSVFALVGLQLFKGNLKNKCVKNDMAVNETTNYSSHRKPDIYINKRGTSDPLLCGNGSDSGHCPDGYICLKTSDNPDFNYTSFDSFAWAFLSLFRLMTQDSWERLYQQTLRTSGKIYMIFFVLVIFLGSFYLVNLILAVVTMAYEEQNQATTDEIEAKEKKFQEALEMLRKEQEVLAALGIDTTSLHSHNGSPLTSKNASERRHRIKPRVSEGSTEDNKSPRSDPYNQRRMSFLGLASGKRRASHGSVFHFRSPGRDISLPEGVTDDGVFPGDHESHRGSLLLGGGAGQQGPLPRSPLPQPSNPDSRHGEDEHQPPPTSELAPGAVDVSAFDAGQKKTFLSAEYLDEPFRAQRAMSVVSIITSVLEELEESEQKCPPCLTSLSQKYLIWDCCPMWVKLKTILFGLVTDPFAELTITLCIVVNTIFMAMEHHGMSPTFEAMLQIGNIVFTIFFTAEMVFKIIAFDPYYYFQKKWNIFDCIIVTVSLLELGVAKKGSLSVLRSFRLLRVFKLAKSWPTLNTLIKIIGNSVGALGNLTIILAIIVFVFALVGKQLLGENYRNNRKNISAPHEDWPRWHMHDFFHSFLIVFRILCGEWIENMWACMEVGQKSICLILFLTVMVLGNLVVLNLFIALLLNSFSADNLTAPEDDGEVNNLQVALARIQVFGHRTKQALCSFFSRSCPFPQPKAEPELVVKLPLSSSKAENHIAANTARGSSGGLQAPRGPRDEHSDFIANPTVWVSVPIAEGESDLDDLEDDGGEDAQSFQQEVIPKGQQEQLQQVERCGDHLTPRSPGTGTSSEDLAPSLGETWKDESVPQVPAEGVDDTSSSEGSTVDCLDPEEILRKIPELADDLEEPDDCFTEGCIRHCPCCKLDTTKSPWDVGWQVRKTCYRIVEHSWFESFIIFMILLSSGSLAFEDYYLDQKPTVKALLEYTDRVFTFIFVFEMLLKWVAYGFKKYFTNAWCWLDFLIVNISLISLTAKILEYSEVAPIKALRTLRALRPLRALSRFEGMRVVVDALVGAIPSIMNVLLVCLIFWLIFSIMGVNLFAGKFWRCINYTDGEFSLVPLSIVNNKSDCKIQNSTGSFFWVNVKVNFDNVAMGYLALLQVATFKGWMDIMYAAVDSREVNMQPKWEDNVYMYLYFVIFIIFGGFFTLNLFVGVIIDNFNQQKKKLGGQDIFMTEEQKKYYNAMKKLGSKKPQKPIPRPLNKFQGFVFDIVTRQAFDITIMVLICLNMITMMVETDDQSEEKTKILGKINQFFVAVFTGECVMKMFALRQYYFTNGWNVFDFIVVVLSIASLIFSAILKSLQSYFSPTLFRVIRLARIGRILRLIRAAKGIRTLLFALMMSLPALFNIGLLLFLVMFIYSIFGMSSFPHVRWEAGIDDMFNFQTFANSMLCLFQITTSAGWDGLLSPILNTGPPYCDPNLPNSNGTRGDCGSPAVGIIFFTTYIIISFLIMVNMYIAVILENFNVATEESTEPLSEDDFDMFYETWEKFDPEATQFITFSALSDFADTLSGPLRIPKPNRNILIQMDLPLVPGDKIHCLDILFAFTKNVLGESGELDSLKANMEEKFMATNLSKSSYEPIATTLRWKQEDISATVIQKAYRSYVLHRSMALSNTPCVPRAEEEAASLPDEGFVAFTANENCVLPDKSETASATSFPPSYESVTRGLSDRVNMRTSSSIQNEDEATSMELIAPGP

As for `CC[C@H](C)[C@@H]1NC(=O)[C@H](CCCNC(=N)N)NC(=O)[C@@H]2CSSC[C@@H]3NC(=O)CNC(=O)CNC(=O)[C@H](CC(C)C)NC(=O)[C@H](Cc4ccccc4)NC(=O)[C@H](Cc4c[nH]c5ccccc45)NC(=O)[C@H](CCCNC(=N)N)NC(=O)[C@@H](NC(=O)[C@@H](N)CC(=O)O)CSSC[C@H](NC(=O)[C@H](CSSC[C@@H](C(=O)N[C@@H](C)C(=O)N[C@@H](Cc4c[nH]c5ccccc45)C(=O)N[C@@H](CC(=O)O)C(=O)NCC(=O)N[C@H](C(=O)N[C@@H](Cc4ccccc4)C(N)=O)[C@@H](C)O)NC(=O)[C@H](Cc4ccc(O)cc4)NC(=O)[C@H](CCCCN)NC(=O)[C@H]([C@@H](C)CC)NC(=O)[C@H](Cc4ccc(O)cc4)NC(=O)CNC(=O)[C@H](CC(=O)O)NC1=O)NC(=O)[C@H](CC(=O)O)NC(=O)[C@H](CO)NC(=O)[C@H](CC(=O)O)NC(=O)[C@H](CCCCN)NC(=O)[C@H](CO)NC3=O)C(=O)N[C@@H](CCCCN)C(=O)N[C@@H](Cc1c[nH]cn1)C(=O)N[C@@H](CC(C)C)C(=O)N[C@@H](C)C(=O)N2` [Eo1a] (H-DCRWFLGGCSKDSDCCKHLACRIDGYIKYCAWDGTF-NH2; disulfide 2-16, 9-21, 15-30 (inferred); N-terminus assumed), the “τactivation of KV2.1” value at KV2.1 (300 ms pulse to +50 mV, buffer 5.1 ± 0.4 ms) amounted to 13.6 ± 2.7 ms. The “late current size of KV2.1, I250 ms” value on KV2.1 (holding −80 mV, 300 ms pulse to +50 mV, buffer 6.25 ± 0.9 nA) is reported as 6.34 ± 0.9 nA. For the same compound, at KV2.1, the “KV2.1 late current, inhibitory activity” value is listed as “no inhibitory activity”. Moreover, at NaV1.8, the concentration for a half-maximal effect (EC50) was determined as 0.894 ± 0.146 µM. Besides, the “peak current I/I0” value with NaV1.4 (5 min, peak from I-V protocol at any voltage, normalised to buffer control, HEK293 hNaV1.4/β1, mean ± SEM, n = 4–6 cells) is on record as 0.68 ± 0.04. The V1/2 activation is recorded as −28.8 ± 1.2 mV in the assay with NaV1.4 (NaV1.4, 5 min, control −27.6 ± 1.4 mV, mean ± SEM, n = 4–6) and −35.0 mV with NaV1.6 (5 min, control −22.7 ± 1.0 mV, *p < 0.05, mean ± SEM, n = 4–6). The “V1/2 inactivation (steady-state fast inactivation)” value in the assay on NaV1.4 (NaV1.4, 5 min, control −65.8 ± 1.3 mV, mean ± SEM, n = 4–6) is recorded as −67.6 ± 1.2; with NaV1.6 (5 min, control −56.3 ± 1.1 mV, mean ± SEM, n = 4–6) it was −56.2 ± 1.0. In the assay on NaV1.4 (NaV1.4, test pulse −20 mV), the “effect on inactivation kinetics” value is on record as “minimal effect”. Also, the “effect on fast inactivation” value in the assay with NaV1.6 (test pulse −20 mV) is “delayed fast-inactivation”.

Usually EC50 stands for the concentration at which the effect is half-maximal.
